Here are results for 29 compounds from patent publication US12171755B2, “PAPD5 inhibitors and methods of use thereof” (Children's Medical Center Corporation, priority 2017, dated 2024).

This assay deals with T1, PAPD5 (Homo sapiens, UniProt Q8NDF8).
T1 construct: made in house
The assay can be described thus: High-throughput luminescence (KinaseGlo) RNA polyadenylation assay, ATP utilization by recombinant PAPD5. In kind it is biochemical. As to conditions: for Fold-change determined at compound concentration 33 μM / Fold-change determined at compound concentration 100 μM / Fold-change determined at compound concentration 10 μM: Table 4 (entries of Table 5), ratio of luminescence with inhibitor to DMSO; for Fold-change determined at compound concentration 33 μM: 33 μM compound; for Fold-change determined at compound concentration 100 μM: higher = higher inhibition; for Fold-change determined at compound concentration 10 μM: 10 μM compound. A digest of the protocol:
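Recombinant PAPD5 polyadenylates an oligonucleotide substrate using ATP, and remaining ATP is read by KinaseGlo luciferase luminescence. Compound was incubated for 2 h at room temperature, then with luciferase for 10 min.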

T1 sequence (Q8NDF8 68-698 isoform Q8NDF8-5): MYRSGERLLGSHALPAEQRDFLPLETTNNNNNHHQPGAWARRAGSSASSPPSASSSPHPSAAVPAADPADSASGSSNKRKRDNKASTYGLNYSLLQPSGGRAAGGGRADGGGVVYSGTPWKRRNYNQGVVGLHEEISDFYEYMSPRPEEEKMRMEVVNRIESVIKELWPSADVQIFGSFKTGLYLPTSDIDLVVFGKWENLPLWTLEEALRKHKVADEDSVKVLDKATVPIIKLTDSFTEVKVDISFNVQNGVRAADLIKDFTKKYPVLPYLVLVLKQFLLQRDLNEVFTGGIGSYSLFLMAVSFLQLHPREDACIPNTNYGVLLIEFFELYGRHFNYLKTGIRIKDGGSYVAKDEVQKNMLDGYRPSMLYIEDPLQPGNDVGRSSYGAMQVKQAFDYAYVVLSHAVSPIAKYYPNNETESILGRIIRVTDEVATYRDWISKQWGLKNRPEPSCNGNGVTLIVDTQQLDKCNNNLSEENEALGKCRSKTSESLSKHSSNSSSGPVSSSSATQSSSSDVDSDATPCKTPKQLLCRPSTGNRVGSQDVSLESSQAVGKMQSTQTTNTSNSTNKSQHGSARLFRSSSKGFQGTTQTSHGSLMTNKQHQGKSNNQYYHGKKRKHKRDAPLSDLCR

Regarding `Cc1ccc(S(=O)(=O)NCc2ccc(-c3nn4cnnc4s3)cc2)cc1` [Entry 216, 4-methyl-N-[[4-([1,2,4]triazolo[3,4-b][1,3,4]thiadiazol-6-yl)phenyl]methyl]benzenesulfonamide], the “Fold-change determined at compound concentration 33 μM” value came out at 1.103. Further, the “Fold-change determined at compound concentration 100 μM” value (100 μM compound) turned out to be 1.239.
For `Cc1c(C(=O)N2CCCC2)oc2c1-c1nn(CC(=O)NCc3ccccc3Br)cc1CC2` [Entry 172, N-[(2-bromophenyl)methyl]-2-[8-methyl-7-(pyrrolidine-1-carbonyl)-4,5-dihydrofuro[2,3-g]indazol-2-yl]acetamide] the same measures were 1.296 and 1.616.
Regarding `N#C/C(=C\c1ccc(-c2ccc(C(=O)O)cc2)o1)C(=O)Nc1ccccc1C(=O)O` [Entry 244, 2-[[(E)-3-[5-(4-carboxyphenyl)furan-2-yl]-2-cyanoprop-2-enoyl]amino]benzoic acid], the “Fold-change determined at compound concentration 10 μM” value is given as 1.32 and the “Fold-change determined at compound concentration 33 μM” value is recorded as 1.737. The “Fold-change determined at compound concentration 100 μM” value (100 μM compound) amounted to 2.572.
Regarding `CCOc1ccc2oc(=O)cc(CN3CCN(C(=O)c4ccc(OC)c(OC)c4)CC3)c2c1` [Entry 129, 4-[[4-(3,4-dimethoxybenzoyl)piperazin-1-yl]methyl]-6-ethoxychromen-2-one], the “Fold-change determined at compound concentration 33 μM” value turned out to be 1.153. The “Fold-change determined at compound concentration 100 μM” value (100 μM compound) amounted to 1.395.
For `CCOc1cc(C2CC(=O)Nc3c2sc(C(=O)O)c3-c2cccc(F)c2)ccc1OCC(N)=O` (centres unmarked) [Entry 198, 7-[4-(2-amino-2-oxoethoxy)-3-ethoxyphenyl]-3-(3-fluorophenyl)-5-oxo-4,5,6,7-tetrahydrothieno[3,2-b]pyridine-2-carboxylic acid] the same measures were 1.084 and 1.264.
The matching figures for `COc1ccc(-c2[nH]nc3nc(-c4cc(OC)c(OC)c(OC)c4)cc(C(=O)O)c23)cc1` [Entry 141, 3-(4-methoxyphenyl)-6-(3,4,5-trimethoxyphenyl)-2H-pyrazolo[3,4-b]pyridine-4-carboxylic acid]: 1.308 and 1.882.
The matching figures for `CC1=NCCc2c1[nH]c1ccccc21` [Entry 113, 1-Methyl-4,9-dihydro-3H-beta-carboline]: 1.202 and 1.674.
On to `CCCc1cc(=O)n2nc(CNc3ccc(Cl)cc3)nc2[nH]1` [Entry 155, 2-{[(4-chlorophenyl)amino]methyl}-5-propyl[1,2,4]triazolo[1,5-a]pyrimidin-7(4H)-one], for which the “Fold-change determined at compound concentration 33 μM” value was determined as 1.097. Under “100 μM compound”, the “Fold-change determined at compound concentration 100 μM” value stood at 1.372.
`COc1ccc2c(c1)[nH]c1c(C)nccc12` [Entry 114, 7-Methoxy-1-methyl-9H-pyrido[3,4-b]indole]: the “Fold-change determined at compound concentration 33 μM” value is reported as 1.1. Besides, for the setting “100 μM compound”, the “Fold-change determined at compound concentration 100 μM” value worked out at 1.342.
The matching figures for `CCOc1ccccc1CNC(=O)Nc1cn(CC(C)C)c(=O)c2ccccc12` [Entry 59, 1-[(2-ethoxyphenyl)methyl]-3-[2-(2-methylpropyl)-1-oxoisoquinolin-4-yl]urea]: 1.113 and 1.69.
Turning to `CCOC(=O)c1cccc(NC(=O)c2oc3c(c2C)-c2nn(CC)cc2CC3)c1` [Entry 173, ethyl 3-[(2-ethyl-8-methyl-4,5-dihydrofuro[2,3-g]indazole-7-carbonyl)amino]benzoate], the “Fold-change determined at compound concentration 33 μM” value is 1.19. The “Fold-change determined at compound concentration 100 μM” value (100 μM compound) is given as 1.657.
As to `CCSc1nnc(NC(=O)c2cc(=O)c3cc(C)c(C)cc3o2)s1` [Entry 124, N-(5-ethylsulfanyl-1,3,4-thiadiazol-2-yl)-6,7-dimethyl-4-oxochromene-2-carboxamide], the “Fold-change determined at compound concentration 10 μM” value is on record as 1.241 and the “Fold-change determined at compound concentration 33 μM” value stood at 1.437. For the setting “100 μM compound”, the “Fold-change determined at compound concentration 100 μM” value stood at 1.858.
Consider `Cn1c(=O)c2c(nc(Sc3nnc(NC(=O)c4ccccc4Br)s3)n2C)n(C)c1=O` [Entry 81], for which the “Fold-change determined at compound concentration 33 μM” value was determined as 1.107. Further, where the note is “100 μM compound”, the “Fold-change determined at compound concentration 100 μM” value is 1.288.
The matching figures for `NC1CCN(c2nc3c(cc2F)c(=O)c(C(=O)O)cn3-c2ccc(F)cc2F)C1` (centres unmarked) [Entry 62, 7-(3-aminopyrrolidin-1-yl)-1-(2,4-difluorophenyl)-6-fluoro-4-oxo-1,4-dihydro-1,8-naphthyridine-3-carboxylic acid]: 1.298 and 1.41.
Consider `Cc1oc2ccccc2c1C(=O)CSc1nc(O)c2nc[nH]c2n1` [Entry 164, 2-[(6-hydroxy-9H-purin-2-yl)thio]-1-(2-methyl-1-benzofuran-3-yl)ethanone], for which the “Fold-change determined at compound concentration 33 μM” value amounted to 1.126. Also, for the setting “100 μM compound”, the “Fold-change determined at compound concentration 100 μM” value turned out to be 1.293.
The matching figures for `Cc1cc(C)c2nc(C)cc(C(=O)O)c2c1` [Entry 85, 2,6,8-trimethylquinoline-4-carboxylic acid]: 1.061 and 1.252.
For `O=C(NCc1ccccn1)C1CCCN(c2ncnc3c2oc2ccccc23)C1` (centres unmarked) [Entry 37, 1-([1]benzofuro[3,2-d]pyrimidin-4-yl)-N-(pyridin-2-ylmethyl)piperidine-3-carboxamide] the same measures were 1.077 and 1.218.
For `Cc1nn(-c2ccc(Cl)cc2)c2sc(C(=O)O)cc12` [Entry 204, 1-(4-Chloro-phenyl)-3-methyl-1H-thieno[2,3-c]pyrazole-5-carboxylic acid] the same measures were 1.073 and 1.229.
In the case of `COc1ccc(OC)c(NC(=O)Cc2c(C(=O)O)[nH]c3ccc(Cl)cc23)c1` [Entry 109, 5-chloro-3-[2-(2,5-dimethoxyanilino)-2-oxoethyl]-1H-indole-2-carboxylic acid], the “Fold-change determined at compound concentration 33 μM” value came to 1.076. Besides, the “Fold-change determined at compound concentration 100 μM” value (100 μM compound) was found to be 1.231.
The matching figures for `CCOC(=O)c1c(NC(=O)CSc2n[nH]c3nc(=O)cc(C)n23)sc2c1CCCCC2` [Entry 200, ethyl 2-[[2-[(5-methyl-7-oxo-1H-[1,2,4]triazolo[4,3-a]pyrimidin-3-yl)sulfanyl]acetyl]amino]-5,6,7,8-tetrahydro-4H-cyclohepta[b]thiophene-3-carboxylate]: 1.038 and 1.414.
The matching figures for `Cc1cccc2c(=O)cc(C(=O)Nc3nnc(C(C)C)s3)oc12` [Entry 117, 8-methyl-4-oxo-N-(5-propan-2-yl-1,3,4-thiadiazol-2-yl)chromene-2-carboxamide]: 1.177 and 1.444.
Turning to `C=CCNC(=O)c1sc(=S)n2c1[nH]c(=O)c1cc3c(cc12)OCO3` [N-allyl-5-oxo-1-thioxo-4,5-dihydro[1,3]dioxolo[4,5-g][1,3]thiazolo[3,4-a]quinazoline-3-carboxamide], the “fold change at 100 μM concentration in the assay” value (100 μM compound) is listed as 3.1.
In the case of `COc1cccc(-c2nnc3n(CCc4ccccc4)c(=O)c4ccccc4n23)c1O` [Entry 225, (1Z)-1-(5-methoxy-6-oxocyclohexa-2,4-dien-1-ylidene)-4-(2-phenylethyl)-2H-[1,2,4]triazolo[4,3-a]quinazolin-5-one], the “Fold-change determined at compound concentration 33 μM” value amounted to 1.173. The “Fold-change determined at compound concentration 100 μM” value (100 μM compound) amounted to 1.219.
For `O=c1c2sccc2n2c(=S)[nH]nc2n1Cc1ccccc1` [Entry 75, 4-benzyl-1-thioxo-2,4-dihydrothieno[2,3-e][1,2,4]triazolo[4,3-a]pyrimidin-5(1H)-one] the same measures were 1.11 and 1.324.
With `Cc1cc(C)c2c(=O)cc(CSc3nnc(-c4cccc(F)c4)n3C)[nH]c2c1` [Entry 106, 2-[[5-(3-fluorophenyl)-4-methyl-1,2,4-triazol-3-yl]sulfanylmethyl]-5,7-dimethyl-1H-quinolin-4-one], the “Fold-change determined at compound concentration 33 μM” value came out at 1.218. The “Fold-change determined at compound concentration 100 μM” value (100 μM compound) was 1.522.
For `CCOC(=O)c1cccc(NS(=O)(=O)c2cc3[nH]c(=O)c(=O)[nH]c3cc2C)c1` [Entry 139, ethyl 3-[(7-methyl-2,3-dioxo-1,4-dihydroquinoxalin-6-yl)sulfonylamino]benzoate] the same measures were 1.272 and 1.549.
As for `c1cc(CNc2nc(C3CC3)nc3c2CCC3)ccn1` [Entry 45, N-(2-cyclopropyl-6,7-dihydro-5H-cyclopenta[d]pyrimidin-4-yl)-N-(4-pyridylmethyl)amine], the “Fold-change determined at compound concentration 33 μM” value was determined as 1.429. Moreover, the “Fold-change determined at compound concentration 100 μM” value (100 μM compound) is 1.936.
For `CN1CCCc2cc(C(=O)NC3CCCCC3)sc21` [Entry 239, N~2~cyclohexyl-7-methyl-4,5,6,7-tetrahydrothieno[2,3-b]pyridine-2-carboxamide] the same measures were 1.125 and 1.314.
The matching figures for `Cc1ccc(-c2nnc(Nc3ccc(OCC(N)=O)cc3)c3ccccc23)cc1S(=O)(=O)NCC1CCCO1` (centres unmarked) [Entry 56, 2-[4-[[4-[4-methyl-3-(oxolan-2-ylmethylsulfamoyl)phenyl]phthalazin-1-yl]amino]phenoxy]acetamide]: 1.226 and 1.487.
